Assay results as given in US10329243B2, “Biphenyl derivative and uses thereof” (XI'AN LIBANG PHARMACEUTICAL CO., LTD, priority 2015, dated 2019).

How the values were obtained:
MDA = MDA determination, cerebral ischemic reperfusion MCAO model; format: in vivo, SD rats
Description: (§1) Rats were intraperitoneally injected with 10% chloral hydrate 350 mg/kg after anesthesia and opened up at the center of the neck in accordance with the Zea Longa modified method. The right common carotid artery was separated, and the right external carotid artery branches was ligated. A small opening was made at the distal end of the external carotid artery, and a previously prepared thread was inserted through the common carotid artery and the external carotid artery bifurcation into the internal carotid artery, till the anterior end of the middle cerebral artery, with an immersed depth of 18 to 19 mm. The thread was then secured, and the wound was sutured layer by layer. After the operation, the rats were placed in a clean incubator to wake up. […] The sham operation group, the ischemic reperfusion group, and the Example groups were prepared strictly according to the requirements of the cerebral ischemic reperfusion model, while in the sham operation group the thread was put only into the external carotid artery. The animals were allowed to eat and drink freely after waking up. After 2 h, the thread was pulled out to achieve reperfusion. The sham operation group, the ischemic reperfusion group, and the Example groups were administered intravenously the aqueous solution of the biphenyl derivatives in PEG400 at 40 mg/kg (40 mg/kg means that 40 mg of the test compound per kg of the body weight of rats) 30 min before reperfusion and 12 h after reperfusion, respectively. The sham operation group and the ischemic reperfusion group were injected with the same amount of blank PEG400 aqueous solution at the same time point.
(§2) 24 hours after reperfusion, 8 rats in each group were sacrificed by decapitation, the brain was removed, rinsed with PBS (pH 7.4) at −20° i for 20 min, evenly sliced (with a thickness of 2 mm), stained in a 2% TTC solution at 37°% in the dark for 30 min, fixed in 10% formalin for 24 h, and photographs were taken to analyze the infarct volume. A mixture of femoral arterial and venous blood was drawn from another 8 rats in each group under anesthesia, placed in a low temperature centrifuge at 4° C., centrifuged at 3500 r/min for 20 min, and the supernatant was stored in a refrigerator at −20° C. ready for SOD and MDA detection. After the blood was drawn, a perfusion needle was insert through the apex to the ascending aorta, and saline at 4° C. was rapid infused until the effluent became clear, followed by 4% paraformaldehyde phosphate buffer perfusion for fixation; the brain was removed by craniotomy, and brain tissues 2 mm in front of and behind the optic chiasma were taken and fixed, dehydrated, rendered transparent, impregnated in wax, and embedded. Brain continuous coronary tissue pathological sections were consecutively cut for later use. The remaining 8 rats in each group were sacrificed, brains were removed, the ischemic brain hemispheres were immediately taken on an ice tray, and 10% brain tissue homogenate was prepared for the detection of IL-1β and TNF-α.
SOD and MDA were determined strictly in accordance with instructions of the kit.

brain cell apoptosis = assay: Apoptosis determination (TUNEL method), cerebral ischemic reperfusion MCAO model; format: in vivo, SD rats
Description: as §1, §2
The TUNEL method was used for determination. Brain tissue paraffin sections were dewaxed into water, washed with 3% H2O2 to eliminate endogenous peroxidase activity, and rinsed with distilled water for 2 min, repeated 3 times. A labelling solution was added for labelling at 37°t for 2 h, and a blocking solution was added for blocking at room temperature for 30 min. A biotinylated anti-digoxin antibody was added for a reaction at 37°a for 30 min, and SABC was added for a reaction at 37°a for 30 min. The sections were continuously rinsed with TBS for 5 min repeatedly for 4 times, stained with DAB, sufficiently washed, mild counterstained with Hematoxylin, gradient dehydrated with alcohol, made transparent with toluene, sealed and fixed. Five non-overlapping fields in semi-dark band were randomly selected from each section and inputted into the image analysis system.

[1] = ischemic reperfusion MCAO rats, 40 mg/kg intravenously 30 min before and 12 h after reperfusion, serum, 24 h after reperfusion
[2] = ischemic reperfusion MCAO rats, 40 mg/kg intravenously, brain sections 24 h after reperfusion, TUNEL, average of five fields
[3] = ischemic reperfusion rat model, edaravone 3 mg/kg

CCCc1cc(-c2cc(CCC)c(O)c(CCC)c2)cc(CCC)c1O [Example 7 group, 4,4′-dihydroxy-3,3′,5,5′-tetrapropylbiphenyl]
MDA CONTENT (MDA; [1]): 4.97 ± 0.50 mmol/mL
Number of apoptotic cells (brain cell apoptosis; [2]): 20.28 ± 3.76

CC(=O)OC(C)Oc1c(C(C)C)cc(-c2cc(C(C)C)c(O)c(C(C)C)c2)cc1C(C)C (stereo not shown) [Example 12 group, Ethyl 1-(4′-hydroxy-3,3′,5,5′-tetraisopropylbiphenyl-4-oxo)acetate]
MDA CONTENT (MDA; [1]): 5.37 ± 0.55 mmol/mL
Number of apoptotic cells (brain cell apoptosis; [2]): 26.27 ± 5.37

CC(C)c1cc(-c2cc(C(C)C)c(OC(=O)C(N)C(C)C)c(C(C)C)c2)cc(C(C)C)c1O (stereo not shown) [Example 11 group, 4′-hydroxy-3,3′,5,5′-tetraisopropylbiphenyl-2-amino-3-methylbutyrate]
MDA CONTENT (MDA; [1]): 4.92 ± 0.52 mmol/mL
Number of apoptotic cells (brain cell apoptosis; [2]): 24.19 ± 4.29

CC1=NN(c2ccccc2)C(=O)C1 [Edaravone injection, edaravone, reference compound]
MDA CONTENT (MDA; [3]): 6.17 ± 0.54 mmol/mL
Number of apoptotic cells (brain cell apoptosis; [3]): 28.6 ± 4.90

CC(C)c1cc(-c2cc(C(C)C)c(Cl)c(C(C)C)c2)cc(C(C)C)c1O [Example 9 group, 4-chloro-4′-hydroxy-3,3′,5,5′-tetraisopropylbiphenyl]
MDA CONTENT (MDA; rat, in vivo, iv, 40 mg/kg): 5.61 ± 0.71 mmol/mL
Number of apoptotic cells (brain cell apoptosis; rat, in vivo, iv, 40 mg/kg): 25.47 ± 4.19

CCCc1cc(-c2cc(CCC)c(O)c(C(C)C)c2)cc(C(C)C)c1O [Example 6 group, 4,4′-dihydroxy-3,3′-diisopropyl-5,5′-dipropylbiphenyl]
MDA CONTENT (MDA; [1]): 4.26 ± 0.41 mmol/mL
Number of apoptotic cells (brain cell apoptosis; [2]): 19.47 ± 5.02

CC(C)c1cc(-c2cc(C(C)C)c(OC=O)c(C(C)C)c2)cc(C(C)C)c1O [Example 10 group]
Number of apoptotic cells (brain cell apoptosis; [2]): 22.18 ± 5.22

CC(=O)Oc1c(C(C)C)cc(-c2cc(C(C)C)c(O)c(C(C)C)c2)cc1C(C)C [Example 1 group, 4′-hydroxy-3,3′,5,5′-tetraisopropylbiphenyl-4-acetate]
MDA CONTENT (MDA; ischemic reperfusion MCAO rats, 40 mg/kg intravenously 30 min before and 12 h after reperfusion, serum, 24 h after reperfusion, 40 mg/kg): 4.74 ± 0.67 mmol/mL

CC(C)c1cc(-c2cc(C(C)C)c(OC(=O)CCC(=O)O)c(C(C)C)c2)cc(C(C)C)c1O [Example 5 group, [4-(4′-hydroxy-3,3′,5,5′-tetraisopropylbiphenyl)oxy]-4-carbonyl butyric acid]
MDA CONTENT (MDA; [1]): 4.47 ± 0.34 mmol/mL
Number of apoptotic cells (brain cell apoptosis; [2]): 20.56 ± 4.29

CC(C)c1cc(-c2cc(C(C)C)c(C(=O)O)c(C(C)C)c2)cc(C(C)C)c1O [Example 8 group, 4′-hydroxy-3,3′,5,5′-tetraisopropylbiphenyl-4-carboxylic acid]
MDA CONTENT (MDA; [1]): 5.12 ± 0.47 mmol/mL
Number of apoptotic cells (brain cell apoptosis; [2]): 24.81 ± 3.35

3,3′,5,5′-tetraisopropylbiphenyl-4,4′-bis(oxymethylene phosphate) [Example 3 group]
MDA CONTENT (MDA; rat, in vivo, iv, 40 mg/kg): 5.36 ± 0.47 mmol/mL
Number of apoptotic cells (brain cell apoptosis; rat, in vivo, iv, 40 mg/kg): 25.14 ± 2.54

CC(=O)Oc1c(C(C)C)cc(-c2cc(C(C)C)c(OC(C)=O)c(C(C)C)c2)cc1C(C)C [Example 2 group, 3,3′,5,5′-tetraisopropylbiphenyl-4′-diacetate]
MDA CONTENT (MDA; [1]): 5.44 ± 0.49 mmol/mL
Number of apoptotic cells (brain cell apoptosis; [2]): 24.65 ± 3.41
